According to patent publication US8227616B2, “Cyanopyridine antibacterial agents and methods of use thereof” (Wisconsin Alumni Research Foundation, priority 2006, dated 2012):
In brackets after ≈: the same amount, converted by molar mass.

What was measured:
S. aureus ATCC 10390 [1] = assay: MIC determination with authentic compounds resynthesized in solution; format: cell-based, Staphylococcus aureus; set-up: MIC against S. aureus 10390: unit: uM; settings: for MIC: Staphylococcus aureus, ATCC10390; for MIC against S. aureus 10390: values quoted in killing-curve protocol, unit not given
Experimental: (§1) For estimated MIC determination, DMSO was added to the dried compound residue obtained from a single spot to afford ca. 100 μL of a 2 mM stock solution. Aliquots (5 μL) of these solutions were added to a 96-well plate, followed by 195 μL of diluted S. aureus 10390 (10^6 CFUs/mL) to yield ca. 50 μM final concentrations. The plates were swirled for 1 h to ensure compound dissolution, incubated for 12 h at 37° C., and the absorbance at 595 nm was recorded using a plate reader. […] Actual MIC values were determined for lead compounds resynthesized in solution using an analogous procedure with solutions of known concentration (see).
(§2) Dose response growth inhibition curves were determined for each active compound (resynthesized in solution) against S. aureus 10390 (SA) and methicillin-resistant S. aureus 33591 (MRSA). […] MIC assays were performed in quadruplicate.

[2] = tested on: Methicillin-resistant S. aureus ATCC 33591 (MRSA); assay: as above; format: cell-based; settings: Staphylococcus aureus; Table 3; authentic sample, only trans isomers of chalcones; error reflects step size in the serial dilutions
Experimental: as §1, §2

S. aureus ATCC 10390 [3] = assay: Estimated MIC, solution-phase microdilution absorbance assay with crude macroarray spot stock solutions; format: cell-based, Staphylococcus aureus; settings: for MIC: Staphylococcus aureus, ATCC10390, 12 h; for inhibition of S. aureus at the 12.5 μM level: macroarray stock solutions diluted four fold
Experimental: Spots from a new 69 member chalcone macroarray as well as the three heterocyclic macroarrays prepared earlier were punched out, cleaved, and eluted with acetonitrile. The resulting solutions were concentrated to a residue that was taken up in DMSO to form 2 mM stock solutions.
From the stock solutions, microdilution assays in a 96 well plate starting at 50 μM were performed in quadruplicate. Each well contained 5 μL of the stock solution as well as 195 μL of a S. aureus culture. The turbidity of each well was measured after incubating 12 hours using a standard plate reader. Active compounds can be further diluted and the assay repeated.
To acquire more quantitative antibacterial activity data about our compounds and verify our on-support assay results, we performed solution-phase absorbance assays that provided estimates of the minimum inhibitory concentration (MIC) of each macroarray member against S. aureus. Stock solutions (ca. 2 mM) were generated by cleaving and eluting 198 individual compounds from chalcone (3) and heterocyclic macroarrays (5, 7, and 8). […] The good overall purities of the crude macroarray compounds allowed for reasonable estimations of MICs.
as §1
Preparation of spot samples and controls. An aliquot of DMSO (ca. 100 μL depending on the loading of the parent hydroxyacetophenone) was added to the dried compound residue obtained after TFA cleavage and elution from a single spot. This afforded a 2.0 mM “spot stock” solution for each spot. A small aliquot of each “spot stock” solution was saved for subsequent LC-MS analysis.
For estimated MIC screens, 5.0 μL portions of the “spot stock” solutions were added to the appropriate wells in a sterile, polystyrene 96-well plate to yield ca. 50 μM solutions (dependent on the initial loading of hydroxyacetopheneone and compound purity). To the positive and negative control wells, 5.0 μL of DMSO were added (positive controls contained bacteria but no compound, while negative controls had neither compound nor bacteria). All estimated MIC assays were performed in quadruplicate. Note: the MIC value is defined as the lowest concentration where no bacterial growth occurs.
Representative estimated MIC assay procedure. This assay procedure is based in part on the method reported by Strøm et al.^xiii A 400 μL portion of overnight S. aureus 10390 culture was diluted with 100 mL of sterile LB broth to give ca. 10^6 CFUs per mL. Aliquots (195 μL) of this solution were added to all of the wells in a sterile 96-well plate (except for the negative control wells; 195 μL of sterile LB broth were added to these wells). The plates were placed on an orbital shaker table and gently swirled for 1 h to ensure compound dissolution, and then incubated (without shaking) for 12 h at 37° C. The absorbance at 595 nm was recorded using a plate reader.
The original “spot stock” solutions of these compounds were diluted with DMSO to give ca. 25 and 13 μM final concentrations and tested for inhibitory activities using the procedure described above.

[4] = tested on: S. epidermidis ATCC 12228; assay: MIC determination, species selectivity; format: cell-based; settings: Staphylococcus epidermidis, ATCC12228; authentic sample, only trans isomers of chalcones; error reflects step size
Experimental: (§3) Each compound from Table 3 was tested for inhibitory activity at 2.5, 5, 7.5, 10, 15, 20, 25, and 30 μM in the susceptible overlaid strains: B. subtilis ATCC 6633, S. epidermidis ATCC 12228, and K. pneumoniae ATCC 4352. MIC assays were run in quadruplicate as described above (with shaking).

[5] = tested on: B. subtilis subsp. spizizenii ATCC 6633; assay: MIC determination, species selectivity; format: cell-based; settings: Bacillus subtilis, ATCC6633; authentic sample, only trans isomers of chalcones; error reflects step size
Experimental: as §3

S. aureus 10390 = assay: Time-dependent bacterial killing curves; format: cell-based, Staphylococcus aureus; settings: 0.5x to 4x MIC, 0-6 h
Experimental: Solutions of compounds 4Bv, 6Ao, 9Cf, and linezolid were prepared in DMSO over a range of concentrations. […] At 0, 2, 4, and 6 h time points, […] samples were withdrawn from the test tubes, diluted into 10 mL of LB broth in a test tube, and swabbed in duplicate on agar plates to determine CFUs. These plates were incubated at 37° C. for 24 h, after which time the colonies were counted visually. […] Instead, 200 μL was removed from the test tube and directly swabbed on the agar plates.

[6] = Table 2, authentic sample synthesized according to standard techniques, read-out: observed MIC
[7] = Table 3, authentic sample, only trans isomers of chalcones, error reflects step size in the serial dilutions, read-out: S. aureus MIC
[8] = Table 2, serial dilution of stock solutions obtained by SPOT-synthesis, read-out: estimated MIC range
[9] = Table 3, serial dilution of spot stock solutions of crude macroarray compounds, read-out: S. aureus Estimated MIC range

Row | MIC (S. aureus ATCC 10390 [1]; [6]) [µM] | MIC (S. aureus ATCC 10390 [1]; [7]) [µM] | MIC [2] [µM] | MIC (S. aureus ATCC 10390 [3]; [8]) [µM] | MIC (S. aureus ATCC 10390 [3]; [9]) [µM] | MIC [4] [µM] | MIC [5] [µM] | Structure (SMILES) | MIC against S. aureus 10390 (S. aureus ATCC 10390 [1]) | inhibition of S. aureus at the 12.5 μM level (S. aureus ATCC 10390 [3]) | mode of activity (bacteriostatic or bactericidal) (S. aureus 10390)
1 | 8.7 ± 1.3 (≈ 3.09 µg/mL) | 10 ± 0.5 (≈ 3.55 µg/mL) | 10 ± 0.5 (≈ 3.55 µg/mL) | 12.5 to 25 (≈ 4.44 to 8.88 µg/mL) | 12.5 to 25 (≈ 4.44 to 8.88 µg/mL) | 12.5 ± 2.5 (≈ 4.44 µg/mL) | 6.3 ± 1.2 (≈ 2.24 µg/mL) | Cc1nc(-c2ccc(O)cc2)cc(-c2cccc(Cl)c2Cl)c1C#N [Compound 6Al, 4-(2,3-dichlorophenyl)-6-(4-hydroxyphenyl)-2-methyl-3-cyanopyridine] | – | – | –
2 | 6 ± 0.5 (≈ 2.34 µg/mL) | 7.5 ± 1.2 (≈ 2.92 µg/mL) | 7.5 ± 1.2 (≈ 2.92 µg/mL) | 6.25 to 12.5 (≈ 2.44 to 4.87 µg/mL) | < 12.5 | 6.3 ± 1.2 (≈ 2.45 µg/mL) | 3.8 ± 1.2 (≈ 1.48 µg/mL) | Cc1nc(-c2ccc(O)cc2)cc(-c2c(Cl)ccc(Cl)c2Cl)c1C#N [Compound 6Ao, 6-(4-hydroxyphenyl)-2-methyl-4-(2,3,6-trichlorophenyl)-3-cyanopyridine] | ~7.5 | complete inhibition | bactericidal
3 | 10 ± 1 (≈ 3.55 µg/mL) | 11.6 ± 0.9 (≈ 4.12 µg/mL) | 13.4 ± 0.9 (≈ 4.76 µg/mL) | 6.25 to 12.5 (≈ 2.22 to 4.44 µg/mL) | < 12.5 | 17.5 ± 2.5 (≈ 6.22 µg/mL) | 22.5 ± 2.5 (≈ 7.99 µg/mL) | Cc1nc(-c2cccc(O)c2)cc(-c2ccc(Cl)cc2Cl)c1C#N [Compound 6Bt, 4-(2,4-dichlorophenyl)-6-(3-hydroxyphenyl)-2-methyl-3-cyanopyridine] | – | complete inhibition | –
4 | – | 32.5 ± 1.2 (≈ 12.1 µg/mL) | 31.2 ± 1.2 (≈ 11.6 µg/mL) | – | 25 to 50 (≈ 9.28 to 18.6 µg/mL) | > 30 | 17.5 ± 2.5 (≈ 6.5 µg/mL) | COc1cc(-c2cc(-c3ccc(Br)cc3)nc(C)n2)ccc1O [Compound 9Cf, 4-(4-bromophenyl)-6-(4-hydroxy-3-methoxyphenyl)-2-methylpyrimidine] | ~32.5 | – | bacteriostatic

Further lines, the molecule ahead of its results:

Row | Structure (SMILES) | MIC (S. aureus ATCC 10390 [1]; [6]) [µM] | MIC (S. aureus ATCC 10390 [1]; [7]) [µM] | MIC [2] [µM] | MIC (S. aureus ATCC 10390 [3]; [8]) [µM] | MIC (S. aureus ATCC 10390 [3]; [9]) [µM] | MIC [4] [µM] | MIC [5] [µM] | MIC against S. aureus 10390 (S. aureus ATCC 10390 [1]) | inhibition of S. aureus at the 12.5 μM level (S. aureus ATCC 10390 [3]) | mode of activity (bacteriostatic or bactericidal) (S. aureus 10390)
5 | O=C(O)c1cn(C2CC2)c2cc(N3CCNCC3)c(F)cc2c1=O [Ciprofloxacin, ciprofloxacin, reference compound] | 0.75 ± 0.12 (≈ 0.249 µg/mL) | 0.6 ± 0.1 (≈ 0.199 µg/mL) | 0.9 ± 0.1 (≈ 0.298 µg/mL) | – | – | – | – | – | – | –
6 | CC(=O)NC[C@H]1CN(c2ccc(N3CCOCC3)c(F)c2)C(=O)O1 [Linezolid, linezolid, reference compound] | 6 ± 0.5 (≈ 2.02 µg/mL) | 10 ± 1 (≈ 3.37 µg/mL) | 8 ± 1 (≈ 2.7 µg/mL) | – | – | – | – | ~10.0 | – | bacteriostatic
